US12263181B2, “Phospholipid compositions” (MACHAVERT PHARMACEUTICALS LLC, priority 2016, dated 2025)

Columns and labels:
SPHK1 kinase = target: T1, SPHK1 kinase (Homo sapiens, UniProt Q9NYA1); assay: FRET-peptide kinase inhibition (SELECTSCREEN Kinase Profiling Service); type: biochemical; conditions: 10 μM solution, ATP at Km
T1 construct: purchased Life Technologies
Description: (§1) Inhibition of various kinases was measured using fluorescence resonance energy transfer (FRET) analysis. Briefly, a kinase is used to transfer the γ-phosphate of ATP to a single tyrosine, serine, or threonine residue in a synthetic FRET-peptide in the presence of each tested fraction. A kinase inhibitor will prevent phosphorylation. FRET-peptides comprise a donor fluorophore and an acceptor fluorophore, where the acceptor fluorophore will only undergo fluorescence from the excitation wavelength of the donor fluorophore due to resonant energy transfer through the peptide. A development reagent is used to cleave the un-phosphorylated FRET-peptides. An uncleaved FRET-peptide (i.e., phosphorylated peptide) will therefore undergo measureable FRET of both acceptor and donor and be indicative of kinase inhibition. […] Because phosphorylation of FRET-peptides suppresses cleavage by the development reagent, calculation of the ratio of donor emission to acceptor emission after excitation of the donor fluorophore at approximately 400 nm is used to quantitate reaction progress. Low ratios indicate the FRET-peptide is phosphorylated (i.e., little kinase inhibition) and high ratios […] (i.e., kinase inhibition). The percent phosphorylation can therefore be calculated from the emission ratio based on controls for the maximum and minimum phosphorylation. The percent inhibition can be calculated based on the percent phosphorylation of a sample with each fraction as compared to the percent phosphorylation without each fraction.
(§2) The kinase inhibitory activity of various 10 μM solutions of various fractions was measured using the SELECTSCREEN Kinase Profiling Service available from Life Technologies. Unless otherwise indicated, the concentration of ATP in each well is the Michaelis-Menten constant (Km value-the concentration of ATP when the phosphorylation reaction velocity is equal half of the maximal velocity for the reaction). […] Z′ is a measure of statistical effect size to assess the quality of the assay. Z′>0.5 is indicative measurement separated from the background and a reliable assay result. The average % inhibition is representative of two independent measurements.

mTOR kinase = target: T2, mTOR kinase (Homo sapiens, UniProt P42345); assay: as above; type: biochemical; conditions: kinase FRAP1 (mTOR); 10 μM solution; ATP at Km
T2 construct: purchased Life Technologies
Description: as §1, §2

various kinases [1] = target: T3, various kinases (Homo sapiens, UniProt Q96GD4); assay: as above; type: biochemical; conditions: kinase AURKB (Aurora B); 10 μM solution; ATP at Km
T3 construct: purchased Life Technologies
T3 sequence (Q96GD4 whole entry): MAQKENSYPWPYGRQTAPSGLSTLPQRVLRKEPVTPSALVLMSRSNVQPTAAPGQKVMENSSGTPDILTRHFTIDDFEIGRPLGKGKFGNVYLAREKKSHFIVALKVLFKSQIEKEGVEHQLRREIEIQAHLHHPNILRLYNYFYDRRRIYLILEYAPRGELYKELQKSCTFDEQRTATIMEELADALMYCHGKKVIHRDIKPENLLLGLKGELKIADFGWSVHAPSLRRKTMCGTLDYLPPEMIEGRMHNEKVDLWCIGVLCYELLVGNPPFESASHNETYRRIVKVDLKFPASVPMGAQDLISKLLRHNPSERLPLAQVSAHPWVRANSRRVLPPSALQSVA
Description: as §1, §2

various kinases [2] = target: T4, various kinases (Homo sapiens, UniProt O14965); assay: as above; type: biochemical; conditions: kinase AURKA (Aurora A); 10 μM solution; ATP at Km
T4 construct: purchased Life Technologies
T4 sequence (O14965 1-403): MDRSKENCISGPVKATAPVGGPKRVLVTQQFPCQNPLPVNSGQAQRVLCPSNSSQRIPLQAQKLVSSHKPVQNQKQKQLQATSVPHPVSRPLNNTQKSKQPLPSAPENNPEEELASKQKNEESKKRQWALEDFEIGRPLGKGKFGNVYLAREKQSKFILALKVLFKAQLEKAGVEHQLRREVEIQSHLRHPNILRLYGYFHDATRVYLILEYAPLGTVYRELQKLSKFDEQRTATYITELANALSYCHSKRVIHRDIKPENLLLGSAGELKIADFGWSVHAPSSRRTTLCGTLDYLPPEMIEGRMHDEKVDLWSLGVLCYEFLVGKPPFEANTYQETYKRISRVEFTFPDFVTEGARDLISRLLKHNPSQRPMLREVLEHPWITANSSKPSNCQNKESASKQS
Description: as §1, §2

various kinases [3] = target: T5, various kinases (Homo sapiens, UniProt P41279); assay: as above; type: biochemical; conditions: kinase MAP3K8 (COT); 10 μM solution; ATP concentration of 100 μM
T5 construct: purchased Life Technologies
T5 sequence (P41279 whole entry): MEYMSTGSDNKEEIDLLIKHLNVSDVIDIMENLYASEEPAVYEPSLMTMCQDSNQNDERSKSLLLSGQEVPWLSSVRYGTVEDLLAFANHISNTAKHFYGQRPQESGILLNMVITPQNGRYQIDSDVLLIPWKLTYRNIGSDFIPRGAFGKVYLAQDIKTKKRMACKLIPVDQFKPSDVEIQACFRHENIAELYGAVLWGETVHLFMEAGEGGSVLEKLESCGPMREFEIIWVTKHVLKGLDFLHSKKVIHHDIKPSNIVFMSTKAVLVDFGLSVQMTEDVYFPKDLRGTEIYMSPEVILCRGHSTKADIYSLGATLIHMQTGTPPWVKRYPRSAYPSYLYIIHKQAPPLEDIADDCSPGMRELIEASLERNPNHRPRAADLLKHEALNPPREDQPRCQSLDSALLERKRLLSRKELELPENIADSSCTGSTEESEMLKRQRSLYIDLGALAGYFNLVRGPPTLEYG
Description: as §1, §2

various kinases [4] = target: T6, various kinases (Homo sapiens, UniProt P48736); assay: as above; type: biochemical; conditions: kinase PIK3CG (p110 gamma); 10 μM solution; ATP at Km
T6 construct: purchased Life Technologies
Description: as §1, §2

various kinases [5] = target: T7, various kinases (Homo sapiens, UniProt Q8TF76); assay: as above; type: biochemical; conditions: kinase GSG2 (Haspin); 10 μM solution; ATP at Km
T7 construct: purchased Life Technologies
T7 sequence (Q8TF76 1-798): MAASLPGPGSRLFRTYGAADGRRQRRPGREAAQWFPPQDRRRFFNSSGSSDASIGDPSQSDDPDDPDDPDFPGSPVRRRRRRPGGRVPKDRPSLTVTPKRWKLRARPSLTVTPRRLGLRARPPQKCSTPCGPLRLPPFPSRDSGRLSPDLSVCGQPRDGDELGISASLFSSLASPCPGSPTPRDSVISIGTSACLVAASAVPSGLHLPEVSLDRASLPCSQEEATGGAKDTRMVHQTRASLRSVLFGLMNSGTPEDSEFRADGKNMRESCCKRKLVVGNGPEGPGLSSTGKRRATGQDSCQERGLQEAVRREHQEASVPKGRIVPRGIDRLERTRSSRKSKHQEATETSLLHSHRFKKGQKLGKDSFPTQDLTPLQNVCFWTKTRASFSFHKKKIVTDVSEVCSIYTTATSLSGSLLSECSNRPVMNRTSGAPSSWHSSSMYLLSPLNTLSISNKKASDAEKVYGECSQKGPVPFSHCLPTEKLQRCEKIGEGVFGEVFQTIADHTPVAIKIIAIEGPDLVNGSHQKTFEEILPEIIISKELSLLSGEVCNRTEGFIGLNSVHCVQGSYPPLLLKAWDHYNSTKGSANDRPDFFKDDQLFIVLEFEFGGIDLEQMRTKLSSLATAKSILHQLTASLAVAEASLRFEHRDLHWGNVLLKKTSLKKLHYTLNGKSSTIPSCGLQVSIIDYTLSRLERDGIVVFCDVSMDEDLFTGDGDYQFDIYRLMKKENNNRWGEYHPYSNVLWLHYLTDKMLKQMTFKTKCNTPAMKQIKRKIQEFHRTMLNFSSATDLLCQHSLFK
Description: as §1, §2

[6] = test system: human pancreatic carcinoma cell line (Capan-2); assay: In vivo tumor growth inhibition, Capan-2 xenograft in nude mice; conditions: oral, 0.1 mL of a 30% (w/w) solution in sunflower oil once a day for 42 days
Description: In vivo measurements of tumor growth inhibition in mice were conducted to determine efficacy of BAP(+), BAP(−), and fractions thereof. A human pancreatic carcinoma cell line (Capan-2 available from European Collection of Cell Cultures, Salisbury UK) was cultivated at 37° C. in a humidified 5% CO2/95% air atmosphere using high glucose D-MEM medium supplemented with 20% fetal bovine serum, 2% penicillin/streptomycin and 1.25% L-glutamine. Before application, cells were harvested by trypsinisation for 30 minutes. Harvested Capan-2 cells were administered subcutaneously to each mouse as 1×10^7 cells in a mixture with a basement membrane preparation (BD MATRIGEL, available from I.T.A.-Interact, Prague CZ). Administration was in the rear right flank of Hsd:athymic nude-Fox n1nu mice (available from Anlab, Prague CZ). […]
Table 12 gives the percentage of tumor weight growth inhibition (% WGI) as compared to the control for various BAP mixtures including BAP(−), BAP(+), pooled fractions F1-F4, F5, a fraction comprising a pooled collection of the F5 sub-fractions enriched in more PCs comprising saturated fatty acids acyl residues (“F5A”), a fraction which comprising a pooled collection of F5 sub-fractions enriched in more PCs comprising unsaturated fatty acid acyl residues (“F5B”), and a fraction of BAP(+) possibly enriched in LPC's (“F5C”). Glycerophosphocholine (GPC) was also evaluated. […]

ABL1 M351T = target: T8, ABL1 M351T (Homo sapiens, UniProt P00519, M351T); assay: LANTHASCREEN Eu Kinase Binding Assay; conditions: 10 μM solutions, two independent measurements
T8 construct: purchased Life Technologies
Description: (§3) Measurement of inhibition of various kinases was also performed by binding a tracer to a kinase and the addition of Europium labeled anti-tag antibodies. When bound to the same kinase, the tracer and Europium interact through FRET and fluoresce. Binding of the tracer and antibody to a kinase results in a high degree of FRET, whereas displacement of the tracer with a kinase inhibitor results in a loss of FRET. This method of measurement removes the cleavage step necessary in the above FRET measurement.
(§4) The kinase inhibitory activity of various 10 μM solutions of various fractions was measured (LANTHASCREEN Eu Kinase Binding Assay Profiling Service available from Life Technologies). In these measurements, greater percent displacement indicates greater kinase inhibition. […] The average % displacement is representative of two independent measurements.

ALK C1156Y = target: T9, ALK C1156Y (Homo sapiens, UniProt Q9UM73, C1156Y); assay: LANTHASCREEN Eu Kinase Binding Assay; conditions: 10 μM solutions, two independent measurements
T9 construct: purchased Life Technologies
T9 sequence (Q9UM73 19-1620 C1156Y): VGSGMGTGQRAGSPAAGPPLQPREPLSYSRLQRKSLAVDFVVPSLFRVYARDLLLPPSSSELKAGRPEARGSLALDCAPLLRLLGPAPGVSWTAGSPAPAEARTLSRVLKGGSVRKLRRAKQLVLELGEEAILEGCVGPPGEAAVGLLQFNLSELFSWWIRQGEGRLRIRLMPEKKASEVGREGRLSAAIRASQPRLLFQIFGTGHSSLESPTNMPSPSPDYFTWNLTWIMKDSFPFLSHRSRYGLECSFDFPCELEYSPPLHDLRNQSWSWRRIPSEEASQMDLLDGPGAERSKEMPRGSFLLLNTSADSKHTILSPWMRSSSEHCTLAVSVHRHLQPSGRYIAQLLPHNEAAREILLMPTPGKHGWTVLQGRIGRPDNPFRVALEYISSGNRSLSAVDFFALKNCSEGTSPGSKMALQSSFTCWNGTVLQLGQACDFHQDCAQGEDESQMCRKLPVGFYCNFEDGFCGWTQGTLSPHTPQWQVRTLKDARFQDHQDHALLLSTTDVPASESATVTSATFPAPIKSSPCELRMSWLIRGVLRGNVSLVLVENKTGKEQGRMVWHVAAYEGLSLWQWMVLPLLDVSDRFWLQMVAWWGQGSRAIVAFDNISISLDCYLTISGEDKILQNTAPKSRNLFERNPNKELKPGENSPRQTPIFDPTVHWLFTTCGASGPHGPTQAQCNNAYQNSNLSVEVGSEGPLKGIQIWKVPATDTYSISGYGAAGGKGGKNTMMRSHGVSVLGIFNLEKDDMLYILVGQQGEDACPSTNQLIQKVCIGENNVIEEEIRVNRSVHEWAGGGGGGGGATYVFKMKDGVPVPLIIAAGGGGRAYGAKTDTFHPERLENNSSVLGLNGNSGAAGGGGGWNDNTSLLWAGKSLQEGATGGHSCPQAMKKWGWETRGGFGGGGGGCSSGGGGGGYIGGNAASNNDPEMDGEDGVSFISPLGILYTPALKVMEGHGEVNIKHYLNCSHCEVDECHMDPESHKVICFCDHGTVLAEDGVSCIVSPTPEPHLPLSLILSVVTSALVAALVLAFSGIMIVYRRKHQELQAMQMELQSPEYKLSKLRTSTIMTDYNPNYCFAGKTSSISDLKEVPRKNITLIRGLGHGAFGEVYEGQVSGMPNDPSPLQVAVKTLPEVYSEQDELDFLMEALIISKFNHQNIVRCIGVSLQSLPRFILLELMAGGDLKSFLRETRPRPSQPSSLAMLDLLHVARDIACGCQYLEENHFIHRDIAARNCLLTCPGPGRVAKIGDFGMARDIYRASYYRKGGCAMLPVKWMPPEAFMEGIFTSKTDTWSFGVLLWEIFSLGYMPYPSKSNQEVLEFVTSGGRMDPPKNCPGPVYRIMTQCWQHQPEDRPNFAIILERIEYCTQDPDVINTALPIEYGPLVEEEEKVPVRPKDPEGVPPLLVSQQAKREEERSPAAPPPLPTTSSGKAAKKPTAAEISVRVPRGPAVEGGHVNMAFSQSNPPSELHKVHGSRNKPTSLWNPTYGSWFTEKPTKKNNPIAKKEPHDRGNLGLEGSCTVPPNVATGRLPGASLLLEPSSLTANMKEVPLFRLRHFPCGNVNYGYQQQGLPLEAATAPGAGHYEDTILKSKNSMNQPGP
Description: as §3, §4

EGFR (ErbB1) d746-750 = target: T10, EGFR (ErbB1) d746-750 (Homo sapiens, UniProt P00533, DEL746-750); assay: LANTHASCREEN Eu Kinase Binding Assay; conditions: 10 μM solutions, two independent measurements
T10 construct: purchased Life Technologies
T10 sequence (P00533 with tags, fused parts or gaps DEL746-750 limits assumed): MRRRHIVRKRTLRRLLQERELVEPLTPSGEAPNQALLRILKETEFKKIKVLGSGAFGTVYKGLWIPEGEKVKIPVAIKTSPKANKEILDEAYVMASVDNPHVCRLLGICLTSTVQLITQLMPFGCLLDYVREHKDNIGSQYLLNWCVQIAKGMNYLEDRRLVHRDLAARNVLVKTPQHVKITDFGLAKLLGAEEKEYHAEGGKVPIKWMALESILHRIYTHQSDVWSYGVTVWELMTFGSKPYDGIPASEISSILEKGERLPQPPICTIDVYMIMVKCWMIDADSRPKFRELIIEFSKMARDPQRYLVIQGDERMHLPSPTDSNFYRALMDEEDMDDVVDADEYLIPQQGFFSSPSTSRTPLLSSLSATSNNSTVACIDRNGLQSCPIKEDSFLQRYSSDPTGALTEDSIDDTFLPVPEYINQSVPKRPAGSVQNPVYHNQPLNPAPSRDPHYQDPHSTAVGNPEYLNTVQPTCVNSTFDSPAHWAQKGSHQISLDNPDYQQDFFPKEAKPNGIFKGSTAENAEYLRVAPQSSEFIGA
Description: as §3, §4

KIT Y823D = target: T11, KIT Y823D (Homo sapiens, UniProt P10721, Y823D); assay: LANTHASCREEN Eu Kinase Binding Assay; conditions: 10 μM solutions, two independent measurements
T11 construct: purchased Life Technologies
T11 sequence (P10721 26-976 Y823D): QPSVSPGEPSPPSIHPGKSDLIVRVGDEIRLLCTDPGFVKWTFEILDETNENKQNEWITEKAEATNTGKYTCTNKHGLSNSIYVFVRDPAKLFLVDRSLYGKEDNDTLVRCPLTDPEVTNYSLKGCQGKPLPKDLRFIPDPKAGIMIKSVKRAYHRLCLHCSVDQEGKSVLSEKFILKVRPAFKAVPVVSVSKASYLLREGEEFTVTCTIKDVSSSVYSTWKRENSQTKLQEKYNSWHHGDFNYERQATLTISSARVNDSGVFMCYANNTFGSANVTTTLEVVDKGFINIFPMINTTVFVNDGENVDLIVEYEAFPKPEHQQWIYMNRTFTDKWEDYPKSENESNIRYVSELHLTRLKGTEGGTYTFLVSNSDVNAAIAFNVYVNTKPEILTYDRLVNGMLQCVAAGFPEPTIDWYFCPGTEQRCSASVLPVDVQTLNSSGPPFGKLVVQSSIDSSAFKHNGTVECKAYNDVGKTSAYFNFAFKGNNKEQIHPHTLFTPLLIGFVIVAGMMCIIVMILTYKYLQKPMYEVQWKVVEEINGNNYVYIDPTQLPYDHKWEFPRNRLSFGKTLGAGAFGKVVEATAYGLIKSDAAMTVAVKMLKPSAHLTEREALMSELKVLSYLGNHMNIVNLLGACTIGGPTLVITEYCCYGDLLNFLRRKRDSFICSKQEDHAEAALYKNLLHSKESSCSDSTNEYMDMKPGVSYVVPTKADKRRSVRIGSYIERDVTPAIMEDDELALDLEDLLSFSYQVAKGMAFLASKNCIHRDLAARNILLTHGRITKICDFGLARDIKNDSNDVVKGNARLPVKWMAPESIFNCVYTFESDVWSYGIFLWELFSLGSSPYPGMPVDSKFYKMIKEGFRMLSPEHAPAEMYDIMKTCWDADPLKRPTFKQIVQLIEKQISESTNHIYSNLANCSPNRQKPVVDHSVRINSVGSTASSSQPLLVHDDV
Description: as §3, §4

TTK = target: T12, TTK (Homo sapiens, UniProt P33981); assay: LANTHASCREEN Eu Kinase Binding Assay; conditions: 10 μM solutions, two independent measurements
T12 construct: purchased Life Technologies
T12 sequence (P33981 1-857): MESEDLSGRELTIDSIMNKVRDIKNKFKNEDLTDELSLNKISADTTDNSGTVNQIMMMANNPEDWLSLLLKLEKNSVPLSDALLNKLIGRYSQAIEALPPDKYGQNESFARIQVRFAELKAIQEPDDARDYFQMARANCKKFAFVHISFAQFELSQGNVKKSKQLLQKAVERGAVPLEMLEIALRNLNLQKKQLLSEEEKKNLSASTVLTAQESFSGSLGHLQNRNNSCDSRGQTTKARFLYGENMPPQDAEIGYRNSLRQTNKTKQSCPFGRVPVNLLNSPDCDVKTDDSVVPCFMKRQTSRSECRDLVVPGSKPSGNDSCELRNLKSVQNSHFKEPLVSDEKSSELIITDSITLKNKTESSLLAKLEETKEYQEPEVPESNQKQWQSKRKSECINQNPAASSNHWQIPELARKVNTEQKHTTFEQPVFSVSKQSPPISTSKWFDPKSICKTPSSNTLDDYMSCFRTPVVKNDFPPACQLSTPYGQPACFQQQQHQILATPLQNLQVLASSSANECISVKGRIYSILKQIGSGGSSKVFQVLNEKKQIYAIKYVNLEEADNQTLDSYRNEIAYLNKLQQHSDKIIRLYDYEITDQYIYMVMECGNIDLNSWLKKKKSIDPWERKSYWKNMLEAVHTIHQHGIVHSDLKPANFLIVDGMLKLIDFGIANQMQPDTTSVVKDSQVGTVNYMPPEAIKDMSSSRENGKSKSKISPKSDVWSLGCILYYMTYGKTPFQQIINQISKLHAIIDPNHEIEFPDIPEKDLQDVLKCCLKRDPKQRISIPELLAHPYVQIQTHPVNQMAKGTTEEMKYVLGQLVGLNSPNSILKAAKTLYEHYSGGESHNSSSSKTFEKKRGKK
Description: as §3, §4

KIT N822K = target: T13, KIT N822K (Homo sapiens, UniProt P10721, N822K); assay: LANTHASCREEN Eu Kinase Binding Assay; conditions: 10 μM solutions, two independent measurements
T13 construct: purchased Life Technologies
T13 sequence (P10721 26-976 N822K): as the sequence (P10721 26-976 Y823D) above, with N797K, D798Y counted along it
Description: as §3, §4

KIT D816H = target: T14, KIT D816H (Homo sapiens, UniProt P10721, D816H); assay: LANTHASCREEN Eu Kinase Binding Assay; conditions: 10 μM solutions, two independent measurements
T14 construct: purchased Life Technologies
T14 sequence (P10721 26-976 D816H): as the sequence (P10721 26-976 Y823D) above, with D791H, D798Y counted along it
Description: as §3, §4

WEE1 = target: T15, WEE1 (Homo sapiens, UniProt P30291); assay: LANTHASCREEN Eu Kinase Binding Assay; conditions: 10 μM solutions, two independent measurements
T15 construct: purchased Life Technologies
T15 sequence (P30291 whole entry): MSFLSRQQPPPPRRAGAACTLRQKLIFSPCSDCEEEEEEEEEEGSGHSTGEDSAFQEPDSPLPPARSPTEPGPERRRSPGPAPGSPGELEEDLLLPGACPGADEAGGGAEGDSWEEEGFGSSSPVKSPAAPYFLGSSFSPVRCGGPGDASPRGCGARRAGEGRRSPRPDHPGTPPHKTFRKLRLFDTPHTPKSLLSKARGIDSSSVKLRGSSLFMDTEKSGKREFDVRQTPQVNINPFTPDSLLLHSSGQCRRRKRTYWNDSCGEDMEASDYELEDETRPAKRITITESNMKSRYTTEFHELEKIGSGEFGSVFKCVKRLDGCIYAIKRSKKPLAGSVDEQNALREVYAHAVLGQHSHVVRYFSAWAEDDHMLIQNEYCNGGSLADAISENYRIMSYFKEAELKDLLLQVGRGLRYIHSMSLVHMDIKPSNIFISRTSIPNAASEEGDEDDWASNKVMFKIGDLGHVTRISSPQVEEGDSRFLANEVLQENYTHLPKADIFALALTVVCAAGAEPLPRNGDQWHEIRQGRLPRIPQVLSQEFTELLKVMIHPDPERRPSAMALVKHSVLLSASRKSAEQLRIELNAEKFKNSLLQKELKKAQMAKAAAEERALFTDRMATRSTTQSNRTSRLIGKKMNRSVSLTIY
Description: as §3, §4

T1 sequence (Q9NYA1 whole entry): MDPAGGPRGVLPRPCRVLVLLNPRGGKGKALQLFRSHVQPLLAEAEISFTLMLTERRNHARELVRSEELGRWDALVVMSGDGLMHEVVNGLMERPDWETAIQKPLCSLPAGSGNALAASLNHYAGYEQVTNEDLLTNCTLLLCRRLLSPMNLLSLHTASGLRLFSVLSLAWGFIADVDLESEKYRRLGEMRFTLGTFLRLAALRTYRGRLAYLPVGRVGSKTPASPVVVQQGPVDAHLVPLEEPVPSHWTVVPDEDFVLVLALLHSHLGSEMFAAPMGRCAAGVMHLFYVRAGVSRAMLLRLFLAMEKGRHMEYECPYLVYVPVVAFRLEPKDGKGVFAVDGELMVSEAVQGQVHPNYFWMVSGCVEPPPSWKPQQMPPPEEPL

## C[N+](C)(C)CCOP(=O)([O-])OC[C@H](O)CO [GPC, glycerophosphocholine]
SPHK1 kinase
  Average % Inhibition: −5%
mTOR kinase
  Average % Inhibition: −1%
Various kinases [1]
  Average % Inhibition: 13%
Various kinases [2]
  Average % Inhibition: 22%
Various kinases [3]
  Average % Inhibition: 7%
Various kinases [4]
  Average % Inhibition: 2%
Various kinases [5]
  Average % Inhibition: 14%
[6]
  % WGI (percentage of tumor weight growth inhibition as compared to the control): −41.9%
ABL1 M351T
  Average % Displacement: 4%
ALK C1156Y
  Average % Displacement: 4%
EGFR (ErbB1) d746-750
  Average % Displacement: −1%
KIT Y823D
  Average % Displacement: 2%
TTK
  Average % Displacement: 24%
KIT N822K
  Average % Displacement: −1%
KIT D816H
  Average % Displacement: 1%
WEE1
  Average % Displacement: 5%
